Measured values from article PMC12723449, “From Pharmacophore to Warhead: NAD^+‐Targeting Triazoles as Mechanism‐Based Sirtuin Inhibitors” (Angewandte Chemie (International Ed. in English), 2025).
Where two headings read alike, the source gives them in different places.

Columns and labels:
Assay type in all cases: biochemical
SIRT1 = target: T1, SIRT1 (Homo sapiens, UniProt Q96EB6); assay: Fluorescence-based deacetylation assay (ZMAL-assay), SIRT1; details: 37 °C, assay limit 0.10 µM
T1 construct: For assay experiments, strep-tagged human SIRT1134−747 and SIRT256-356 were expressed and purified as previously; Strep-tag; made in house; host or cells: E. coli BL21 Star (DE3)
T1 sequence (Q96EB6 134-747 limits assumed): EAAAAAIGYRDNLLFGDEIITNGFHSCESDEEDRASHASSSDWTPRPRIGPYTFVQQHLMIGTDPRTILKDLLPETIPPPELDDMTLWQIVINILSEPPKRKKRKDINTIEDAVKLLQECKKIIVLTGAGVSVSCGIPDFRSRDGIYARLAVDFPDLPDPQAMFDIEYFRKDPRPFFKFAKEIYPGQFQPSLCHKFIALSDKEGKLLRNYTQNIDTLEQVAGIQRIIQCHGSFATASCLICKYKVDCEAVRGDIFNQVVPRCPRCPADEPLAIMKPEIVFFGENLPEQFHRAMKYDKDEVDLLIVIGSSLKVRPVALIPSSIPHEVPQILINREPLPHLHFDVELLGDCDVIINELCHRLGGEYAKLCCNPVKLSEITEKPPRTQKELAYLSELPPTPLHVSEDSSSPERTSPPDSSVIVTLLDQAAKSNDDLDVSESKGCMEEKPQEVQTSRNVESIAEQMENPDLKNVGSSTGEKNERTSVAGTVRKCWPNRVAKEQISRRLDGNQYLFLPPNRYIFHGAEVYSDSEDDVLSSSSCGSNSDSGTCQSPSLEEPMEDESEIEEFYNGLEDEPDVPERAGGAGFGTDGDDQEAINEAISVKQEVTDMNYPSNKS
Protocol: (§1) Determination of IC50 values (SIRT1, SIRT2, SIRT3) via fluorescence-based deacetylation assay […]
(§2) The fluorescence-based deacetylation assay was conducted in a black 384-well microplate (OptiPlate-384 F, PerkinElmer) with a total volume of 30 µL per well and a final DMSO concentration of 2% (v/v) according to a […]
(§3) concentration of 100 nM) in assay buffer (50 mM Tris, 137 mM NaCl, 2.7 mM KCl, 1m MgCl2, 0.01% Tween, 0.05 mg/mL BSA, 0.2 mM TCEP, pH 8.0), 5 µL of substrate (ZMAL, final concentration of 10.5 µM), 5 µL of NAD+ (final concentration of 500 µM) and 10 µL of inhibitor solution (final concentration of 30 µM – 0.014 µM, serial 1:3 dilutions) was incubated at 37 °C and 300 rpm for 4 h. A solution of trypsin (final concentration of 0.5 mg/mL) and nicotinamide (final concentration of 4 mM) was added and incubated at 37 °C and 300 rpm for 30 min to stop the reaction. Samples with 2% (v/v) DMSO instead of inhibitor were prepared as a positive control, and samples with 2% (v/v) DMSO instead of SIRT enzyme were prepared as a negative control. Fluorescence intensity was measured with a microplate reader (λEx = 380-10 nm, λEm = 460 nm, BMG POLARstar Optima, BMG Labtech, Germany). IC50 values were then determined using a nonlinear regression fit with Origin Pro 2019 software. All experiments were performed at least in duplicates. […]

SIRT3 = target: T2, SIRT3 (Homo sapiens, UniProt Q9NTG7); assay: Fluorescence-based deacetylation assay (ZMAL-assay), SIRT3; details: 37 °C, assay limit 0.10 µM
T2 construct: Human SIRT3118-395 was expressed and purified as previously described.[5]; made in house
T2 sequence (Q9NTG7 118-395 limits assumed): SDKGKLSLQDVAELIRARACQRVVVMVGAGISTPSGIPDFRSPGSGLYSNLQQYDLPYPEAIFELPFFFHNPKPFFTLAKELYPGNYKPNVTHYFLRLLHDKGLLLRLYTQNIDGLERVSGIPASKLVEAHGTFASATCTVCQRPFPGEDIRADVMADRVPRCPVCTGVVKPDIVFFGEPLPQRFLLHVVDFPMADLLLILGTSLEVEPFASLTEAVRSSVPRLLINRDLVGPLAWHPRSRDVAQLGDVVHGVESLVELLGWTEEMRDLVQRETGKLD
Protocol: as §1, §2, §3

SIRT2 = target: T3, SIRT2 (Homo sapiens, UniProt Q8IXJ6); assay: Fluorescence-based demyristoylation assay (BSA-Assay)
T3 construct: For assay experiments, strep-tagged human SIRT1134−747 and SIRT256-356 were expressed and purified as previously; Strep-tag; made in house; host or cells: E. coli BL21 Star (DE3)
T3 sequence (Q8IXJ6 56-356 limits assumed): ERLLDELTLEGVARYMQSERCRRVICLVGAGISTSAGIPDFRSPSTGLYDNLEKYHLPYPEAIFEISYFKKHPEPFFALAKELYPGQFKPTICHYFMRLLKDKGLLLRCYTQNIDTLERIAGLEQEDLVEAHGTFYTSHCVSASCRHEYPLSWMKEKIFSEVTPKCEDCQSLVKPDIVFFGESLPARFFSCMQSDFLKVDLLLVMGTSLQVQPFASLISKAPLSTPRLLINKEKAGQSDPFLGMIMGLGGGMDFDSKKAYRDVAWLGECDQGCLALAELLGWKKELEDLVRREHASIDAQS
Protocol: Determination of IC50 values (SIRT2) via fluorescence-based demyristoylation assay (BSA-Assay) The fluorescence-based demyristoylation assay was conducted in a continuous manner in a black 384-well microplate (OptiPlate-384 F, PerkinElmer) with a total volume of 40 µL per well and a final DMSO concentration of 5% (v/v), following a published procedure.[9] A mixture of 14 µL SIRT2 (final concentration of 1 nM) in assay buffer (20 mM Tris, 150 mM NaCl, […], pH 7.8) freshly supplemented with 2 mg/mL of BSA, 14 µL of substrate (F4, KM = 33 ± 5 nM[9], final concentration of 40 nM) and 2 µL of inhibitor solution (final concentration of 100 µM – 0.002 µM, serial 1:2 or 1:4 dilutions) was incubated at 25 °C and 350 rpm for 5 min. Samples with 5% (v/v) DMSO instead of inhibitor were measured as a positive control, and samples with assay buffer and 5% (v/v) DMSO instead of SIRT2 were measured as a negative control. The reaction was started with the addition of 10 µL NAD+ (final concentration of 500 µM) and the product formation was immediately monitored by the change of the fluorescence intensity at 25 °C for 20 min. For NAD+ preincubation experiments, instead of the substrate, 10 µL of NAD+ (final concentration of 500 µM) was added to the solution and incubated at 25 °C and 350 rpm for 15 min. The reaction was started with the addition of 14 µL substrate (final concentration of 40 nM) and the product formation was immediately monitored by the change of the fluorescence intensity at 25 °C every 60 s for 20 min using a microplate reader (λEx = 485 nm, λEm = 530-10 nm, BMG POLARstar Optima, BMG Labtech, Germany).
The activity was normalized using the positive control as 100% and the negative control as 0%. The normalized activity (v/v0) was plotted as a function of the logarithm of the inhibitor concentration [I], and a nonlinear fit was performed according to the following equation to determine the IC50 value.[9] […]

[1] = BSA-Assay, 25 °C, read-out: SIRT2 (demyr.) IC50

SIRT1 (deac.) IC50 (SIRT1) | SIRT3 (deac.) IC50 (SIRT3) | IC50 (SIRT2; [1]) | IC50 (SIRT1; read-out: SIRT1 (deac.) IC50) | IC50 (SIRT3; read-out: SIRT3 (deac.) IC50) | IC50 (SIRT2; 15 min NAD+ preincubation, read-out: IC50, SIRT2 demyristoylation after NAD+ preincubation) | IC50 (SIRT2; fatty-acylated substrate, without NAD+ preincubation, read-out: IC50, SIRT2 demyristoylation) | SMILES
n.i. | n.i. | > 10000 nM |  |  |  |  | Cc1cc(C)nc(SCC(=O)Nc2ncc(Cc3cccc(OCc4c[nH]nn4)c3)s2)n1 [Compound 7]
n.i. | n.i. | 660 ± 100 nM |  |  |  |  | COCCn1cc(COc2cccc(Cc3cnc(NC(=O)CSc4nc(C)cc(C)n4)s3)c2)nn1 [Compound 1, reference compound]
 |  | 30 ± 10 nM | < 100 nM | 130 ± 10 nM | 3.6 ± 0.6 nM | 28 ± 6 nM | CCCCCCCCCCCCc1cn(CCCC[C@H](NC(=O)[C@H](CCCCN)NC(=O)[C@@H]2CCCN2C(=O)[C@H](CC(C)C)NC(=O)[C@H](C)NC(=O)[C@H](CCC(=O)O)NC(C)=O)C(=O)N[C@H](C(=O)NCC(=O)NCC(N)=O)[C@@H](C)O)nn1 [Compound 6]
